Test results published in PMC4774911, “Biochemical Screening of Five Protein Kinases from Plasmodium falciparum against 14,000 Cell-Active Compounds” (PLoS ONE, 2016).
Several values for one entry are separate records, joined by “and”; a condition that tells them apart may be missing. Equal entries are not always repeated.

What was measured:
Assay in all cases: biochemical
Parameters in all cases: endogenous in cells; host or cells: K562 cell extract; species or system K562 (extract); replicate k of n = 2 (each experiment ID is one independent experiment; two experiment IDs per compound)
Conditions in all cases: read-out: KDapp
PIK3R4 = PIK3R4 (Homo sapiens, UniProt Q99570)
Sequence of PIK3R4 (Q99570 whole entry): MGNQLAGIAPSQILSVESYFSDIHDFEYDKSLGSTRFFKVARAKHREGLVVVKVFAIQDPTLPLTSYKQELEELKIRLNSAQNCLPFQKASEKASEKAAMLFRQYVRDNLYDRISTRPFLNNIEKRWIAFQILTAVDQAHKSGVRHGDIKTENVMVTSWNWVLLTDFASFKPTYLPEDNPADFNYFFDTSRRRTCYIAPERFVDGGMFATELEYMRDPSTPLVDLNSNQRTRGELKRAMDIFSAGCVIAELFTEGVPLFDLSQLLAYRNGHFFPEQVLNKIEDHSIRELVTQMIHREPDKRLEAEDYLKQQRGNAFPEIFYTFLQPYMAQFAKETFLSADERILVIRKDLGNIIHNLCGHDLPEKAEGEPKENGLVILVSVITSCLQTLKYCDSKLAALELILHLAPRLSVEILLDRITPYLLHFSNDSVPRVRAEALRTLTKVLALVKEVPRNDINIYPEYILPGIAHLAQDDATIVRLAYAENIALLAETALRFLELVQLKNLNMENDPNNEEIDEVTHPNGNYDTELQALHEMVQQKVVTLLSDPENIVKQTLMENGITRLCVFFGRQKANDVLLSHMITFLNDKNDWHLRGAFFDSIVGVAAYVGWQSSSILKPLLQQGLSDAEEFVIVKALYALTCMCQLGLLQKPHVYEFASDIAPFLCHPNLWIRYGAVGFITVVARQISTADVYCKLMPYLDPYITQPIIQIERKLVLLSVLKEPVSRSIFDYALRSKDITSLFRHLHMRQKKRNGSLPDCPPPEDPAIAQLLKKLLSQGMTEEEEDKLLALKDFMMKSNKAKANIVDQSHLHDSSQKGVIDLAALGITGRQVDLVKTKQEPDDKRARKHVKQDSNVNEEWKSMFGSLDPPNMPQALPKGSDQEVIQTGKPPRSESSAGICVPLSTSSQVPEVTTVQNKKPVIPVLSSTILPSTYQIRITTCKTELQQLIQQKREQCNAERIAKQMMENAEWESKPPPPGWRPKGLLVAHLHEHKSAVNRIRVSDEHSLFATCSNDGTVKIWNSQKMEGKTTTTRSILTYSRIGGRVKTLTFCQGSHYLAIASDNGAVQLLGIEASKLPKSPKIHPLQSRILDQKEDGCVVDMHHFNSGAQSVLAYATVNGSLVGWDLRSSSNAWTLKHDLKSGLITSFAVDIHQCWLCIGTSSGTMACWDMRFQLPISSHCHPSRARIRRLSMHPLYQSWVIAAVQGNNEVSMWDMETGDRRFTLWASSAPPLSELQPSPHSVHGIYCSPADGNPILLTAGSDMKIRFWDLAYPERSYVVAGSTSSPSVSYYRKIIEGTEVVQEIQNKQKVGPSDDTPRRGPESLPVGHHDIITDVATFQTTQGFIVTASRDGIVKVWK

OXSR1 = OXSR1 (Homo sapiens, UniProt O95747)
Sequence of OXSR1 (O95747 whole entry): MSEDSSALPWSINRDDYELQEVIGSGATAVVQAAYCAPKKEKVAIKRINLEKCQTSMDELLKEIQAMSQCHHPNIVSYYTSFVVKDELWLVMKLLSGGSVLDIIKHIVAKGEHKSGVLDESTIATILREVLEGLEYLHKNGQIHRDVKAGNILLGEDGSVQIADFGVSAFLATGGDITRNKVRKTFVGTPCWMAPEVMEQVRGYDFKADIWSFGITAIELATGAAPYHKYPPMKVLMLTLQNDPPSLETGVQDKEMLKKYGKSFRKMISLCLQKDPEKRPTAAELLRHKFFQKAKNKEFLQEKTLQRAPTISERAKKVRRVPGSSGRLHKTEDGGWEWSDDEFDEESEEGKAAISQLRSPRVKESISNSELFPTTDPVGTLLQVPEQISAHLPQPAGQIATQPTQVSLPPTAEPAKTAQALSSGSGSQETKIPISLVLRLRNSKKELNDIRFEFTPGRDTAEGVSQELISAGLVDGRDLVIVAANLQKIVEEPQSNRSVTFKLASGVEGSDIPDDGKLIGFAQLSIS

IRAK4 = target: T1, IRAK4 (Homo sapiens, UniProt Q9NWZ3)
T1 sequence (Q9NWZ3 1-460): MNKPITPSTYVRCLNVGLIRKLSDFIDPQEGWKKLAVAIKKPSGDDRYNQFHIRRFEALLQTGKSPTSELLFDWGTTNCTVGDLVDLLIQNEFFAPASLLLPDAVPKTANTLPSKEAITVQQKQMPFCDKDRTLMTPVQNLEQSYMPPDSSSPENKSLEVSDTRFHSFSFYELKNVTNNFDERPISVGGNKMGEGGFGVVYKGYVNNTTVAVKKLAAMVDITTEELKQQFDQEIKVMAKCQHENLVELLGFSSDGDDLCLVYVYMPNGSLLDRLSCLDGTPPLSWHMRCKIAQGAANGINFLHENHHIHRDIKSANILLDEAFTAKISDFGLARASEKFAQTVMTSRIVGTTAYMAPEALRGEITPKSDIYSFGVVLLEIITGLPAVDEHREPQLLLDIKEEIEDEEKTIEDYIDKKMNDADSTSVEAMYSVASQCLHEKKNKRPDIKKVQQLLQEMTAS

AURKA = target: T2, AURKA (Homo sapiens, UniProt O14965)
T2 sequence (O14965 1-403): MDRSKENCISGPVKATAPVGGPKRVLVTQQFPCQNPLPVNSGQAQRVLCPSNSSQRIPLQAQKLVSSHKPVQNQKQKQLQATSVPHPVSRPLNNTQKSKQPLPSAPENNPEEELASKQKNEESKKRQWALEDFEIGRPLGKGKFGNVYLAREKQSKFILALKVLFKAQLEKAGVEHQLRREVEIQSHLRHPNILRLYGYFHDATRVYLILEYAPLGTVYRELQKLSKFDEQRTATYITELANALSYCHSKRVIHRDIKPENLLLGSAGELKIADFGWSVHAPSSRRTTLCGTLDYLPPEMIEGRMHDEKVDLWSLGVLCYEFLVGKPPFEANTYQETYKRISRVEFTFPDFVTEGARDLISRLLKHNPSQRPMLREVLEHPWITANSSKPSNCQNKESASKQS

AXL = target: T3, AXL (Homo sapiens, UniProt P30530)
T3 sequence (P30530 1-894): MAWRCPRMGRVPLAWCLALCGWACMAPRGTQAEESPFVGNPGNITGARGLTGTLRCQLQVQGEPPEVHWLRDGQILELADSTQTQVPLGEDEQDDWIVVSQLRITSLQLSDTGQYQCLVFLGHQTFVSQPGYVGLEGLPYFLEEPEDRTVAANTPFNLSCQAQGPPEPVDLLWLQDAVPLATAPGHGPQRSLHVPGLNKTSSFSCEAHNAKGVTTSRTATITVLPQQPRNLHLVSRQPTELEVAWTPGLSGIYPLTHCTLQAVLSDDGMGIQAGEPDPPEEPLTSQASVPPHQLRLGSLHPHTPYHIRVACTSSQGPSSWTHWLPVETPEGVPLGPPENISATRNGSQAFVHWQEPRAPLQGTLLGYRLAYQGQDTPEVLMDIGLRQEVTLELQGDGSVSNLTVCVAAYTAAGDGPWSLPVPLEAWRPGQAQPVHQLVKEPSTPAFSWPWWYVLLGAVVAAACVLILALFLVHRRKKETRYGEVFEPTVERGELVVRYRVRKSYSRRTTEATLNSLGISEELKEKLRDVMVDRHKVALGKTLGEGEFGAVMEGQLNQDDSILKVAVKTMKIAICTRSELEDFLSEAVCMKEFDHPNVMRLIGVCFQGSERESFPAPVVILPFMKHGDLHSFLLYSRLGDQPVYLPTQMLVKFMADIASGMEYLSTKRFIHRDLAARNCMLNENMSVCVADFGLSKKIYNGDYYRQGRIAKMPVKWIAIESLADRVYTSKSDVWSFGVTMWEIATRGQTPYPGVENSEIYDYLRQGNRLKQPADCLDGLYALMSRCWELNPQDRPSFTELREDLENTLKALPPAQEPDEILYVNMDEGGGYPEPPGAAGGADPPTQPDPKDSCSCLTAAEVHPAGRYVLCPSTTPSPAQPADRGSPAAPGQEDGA

NEK3 = target: T4, NEK3 (Homo sapiens, UniProt P51956)
T4 sequence (P51956 1-506): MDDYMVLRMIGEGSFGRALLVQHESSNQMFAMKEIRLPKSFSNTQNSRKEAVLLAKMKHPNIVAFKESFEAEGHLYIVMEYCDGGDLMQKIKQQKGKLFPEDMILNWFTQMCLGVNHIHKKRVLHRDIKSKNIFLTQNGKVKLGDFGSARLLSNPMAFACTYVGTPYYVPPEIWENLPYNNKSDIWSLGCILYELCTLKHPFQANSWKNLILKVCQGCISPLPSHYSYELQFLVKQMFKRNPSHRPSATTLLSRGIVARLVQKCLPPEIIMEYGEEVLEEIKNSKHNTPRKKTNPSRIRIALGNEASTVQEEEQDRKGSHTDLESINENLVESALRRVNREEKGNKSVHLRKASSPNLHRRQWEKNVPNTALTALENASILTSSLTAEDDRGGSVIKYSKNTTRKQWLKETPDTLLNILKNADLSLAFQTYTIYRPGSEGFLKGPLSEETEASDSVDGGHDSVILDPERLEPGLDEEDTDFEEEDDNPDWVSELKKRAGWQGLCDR

With CN1CCN(c2ccc(Nc3ncc(C#N)c(Nc4ccccc4C(N)=O)n3)cc2)CC1.Cl [TCMDC-134116] the Kd (PIK3R4) was 1840 nM, the Kd (OXSR1) was 73 nM and 117 nM and the Kd (IRAK4) was 96.4 nM. The Kd (AURKA) was 12.3 nM, the Kd (AXL) was 266 nM and 293 nM and the Kd (NEK3) was 717 nM.
